Columns and labels:
Format in all cases: cell-based, Dehalococcoides and Dehalobacter spp.
[1] = tested on: dechlorinating bacteria known to convert PCE to ethene; assay: Set C: Efficiency by Volatile Fatty Acid Analysis
Source text: (§1) Sets B, C, D, E, and G further contain figures and tables showing results of the characterization of the Efficiency and the Relative Efficiency of electron donor usage. Efficiency may be defined as the percent of electron donor utilized for dechlorination, and may be calculated by dividing the pmoles of Chloride ion generated by the pmoles of electron donor consumed as measured by either Volatile Fatty Acid (VFA) analysis (Sets B, C, and G) or Chemical Oxygen Demand (COD) analysis (Set D and E). The Relative Efficiency of the electron donor utilization may be defined as the Efficiency of the Electron Donor divided by the Efficiency of the Lactate Control.
(§2) The method used to calculate the consumption of the electron donor measured the propionate, acetate and formate levels to calculate the consumption of electron donor over time. The lactate and propionate fermented very rapidly resulting in acetate and formate as the only measurable VFAs.

[2] = tested on: dechlorinating bacteria known to convert PCE to ethene; assay: Set D: Lactic Acid Solids, PCE dechlorination microcosms (kinetics, Relative Rate)
Source text: Certain contaminated materials (or sites) may contain indigenous microbial communities that are sufficient for complete bioremediation of contaminants. For such sites, there is no need to add microbes unless the indigenous microbes are genetically deficient in achieving the desired clean-up goals. For those sites that are microbiologically limited, microorganisms may be added to the contaminated materials (or sites). In one embodiment, the inoculum may be a mixed culture of halo-respiring bacteria that have been enriched to reach an optimal cell density. These mixed cultures of halo-respiring bacteria may be typically obtained from sediment samples from rivers, streams or any waterways. More specifically, the inoculum used in the Examples was originated from a Sangamon River sediment sample (Lodge Park, Piatt County, Ill.) See, e.g., Brennan, R. A., Sanford, R. A. and […]. (2006). “Biodegradation of Tetrachloroethene by Chitin Fermentation Products in a Continuous Flow Column System.” Journal of Environ. Engr., June 665-673. […] Brennan, R. A., and Sanford, R. A. (2002). “Continuous steady-state method using Tenax for delivering tetrachloroethene to chlororespiring bacteria.” Appl. Environ. […] Using 16S rRNA gene-specific primers, both Dehalococcoides and Dehalobacter spp. were detected. […] For purpose of this disclosure, each bottle may be started with a certain amount of PCE. At subsequent times each bottle may be sampled for the degradation daughter products of PCE, namely trichloroethene (TCE), cis-dichloroethene (DCE), vinyl chloride (VC) and ethene, etc. […] The rate of degradation may be determined by calculating the number of pmoles of chloride ions removed from PCE and subsequently from the amounts of the daughter products generated. The calculation may be performed as follows: […] Next, the dechlorination rate may be determined for each bottle at each time by dividing the Chloride generated by the time (days). […] This ratio is called Relative Rate and is dimensionless. As shown in the Examples, a paired t-test has been conducted to calculate the probability that the Relative Rate of one group (i.e. with Nutrient) is greater than the other group (i.e. without Nutrient). The null hypothesis is that the underlying means of the two paired groups are equal. The Probability that one group has higher Relative Rates than the other group is shown in various tables in the Examples. […] Lactic Acid Solids is a mixture of lactic acid, oligimers of lactic acid and residual sugars. […] In addition, this set was used to characterize if and to what extent the Lactic Acid Solids was an efficacious electron donor for anaerobic bioremediation of contaminants in water.

[3] = tested on: dechlorinating bacteria known to convert PCE to ethene; assay: Set D: Efficiency by COD Analysis
Source text: Efficiency may be defined as the percent of electron donor utilized for dechlorination, and may be calculated by dividing the pmoles of Chloride ion generated by the pmoles of electron donor consumed as measured by either Volatile Fatty Acid (VFA) analysis (Sets B, C, and G) or Chemical Oxygen Demand (COD) analysis (Set D and E). The Relative Efficiency of the electron donor utilization may be defined as the Efficiency of the Electron Donor divided by the Efficiency of the Lactate Control.
The COD analysis calculates the utilization of electron donor by measuring the starting COD and the final COD taking the difference and converting mg/L to pmoles of electrons. The pmoles of electrons used for dechlorination was determined from the calculated Chloride produced leading to an Efficiency and Relative Efficiency of electron donor utilization as compared to lactate.

[4] = tested on: dechlorinating bacteria known to convert PCE to ethene; assay: Set G: Efficiency by VFA Analysis
Source text: as §1, §2
Set G contained microcosms that tested two different Yeast Metabolites (YM3 and YM4) and a Polysaccharide (PS1) for kinetics and efficiency of electron donor utilization using lactate and molasses as the electron donors. PS1 was also tested as an electron donor by itself.
Lactate at 11.2 mM (1,000 mg/L) and nutrient amendment at 1% of the electron donor levels (˜10 mg/L). Triplicate bottles received 2 micro liters of PCE and 2 ml of inoculum. The bottles were sampled 5 times over a 138 day period.

SMILES: CC(O)C(=O)[O-].[Na+] (stereo not drawn) [Lactate Control, sodium lactate]
- Estimated % Efficiency [1]: 2.55%
- Relative Efficiency ([1]; relative to Lactate Control): 1.00
- Cl^− Rate ± s.d. ([2]; 0 days): 0.00 ± 0.00 µmol
- Cl^− ± s.d. ([2]; 0 days): 0.00 ± 0.00 µmol
- DCE ± s.d. ([2]; 0 days): 0.00 ± 0.00 µmol
- Ethene ± s.d. ([2]; 0 days): 0.00 ± 0.00 µmol
- PCE ± s.d. ([2]; 0 days): 19.54 ± 0.00 µmol
- TCE ± s.d. ([2]; 0 days): 0.00 ± 0.00 µmol
- VC ± s.d. ([2]; 0 days): 0.00 ± 0.00 µmol
- Cl^− Rate ± s.d. ([2]; 22 days): 2.64 ± 0.00 µmol
- Cl^− ± s.d. ([2]; 22 days): 58.02 ± 0.10 µmol
- DCE ± s.d. ([2]; 22 days): 10.02 ± 0.06 µmol
- Ethene ± s.d. ([2]; 22 days): 0.25 ± 0.07 µmol
- PCE ± s.d. ([2]; 22 days): 0.00 ± 0.00 µmol
- TCE ± s.d. ([2]; 22 days): 0.00 ± 0.00 µmol
- VC ± s.d. ([2]; 22 days): 0.10 ± 0.03 µmol
- Cl^− Rate ± s.d. ([2]; 36 days): 1.18 ± 0.01 µmol
- Cl^− ± s.d. ([2]; 36 days): 63.68 ± 0.46 µmol
- DCE ± s.d. ([2]; 36 days): 7.18 ± 0.26 µmol
- Ethene ± s.d. ([2]; 36 days): 0.23 ± 0.19 µmol
- PCE ± s.d. ([2]; 36 days): 0.00 ± 0.00 µmol
- TCE ± s.d. ([2]; 36 days): 0.01 ± 0.02 µmol
- VC ± s.d. ([2]; 36 days): 0.08 ± 0.01 µmol
- Cl^− Rate ± s.d. ([2]; 50 days): 1.29 ± 0.06 µmol
- Cl^− ± s.d. ([2]; 50 days): 64.63 ± 2.77 µmol
- DCE ± s.d. ([2]; 50 days): 4.98 ± 0.67 µmol
- Ethene ± s.d. ([2]; 50 days): 0.20 ± 0.09 µmol
- PCE ± s.d. ([2]; 50 days): 0.00 ± 0.00 µmol
- TCE ± s.d. ([2]; 50 days): 0.00 ± 0.00 µmol
- VC ± s.d. ([2]; 50 days): 3.57 ± 1.88 µmol
- % of e^− used for dechlor. [3]: 7%
- Chloride ([3]; Efficiency by COD Analysis): 64.63 µmol
- Relative Efficiency ([3]; relative to Lactate Control): 100%
- efficiency of electron donor utilization for dechlorination (in words) ([4]; Set G): statistically more efficient an electron donor as compared to PS1 and molasses
- Estimated % Efficiency ([4]; e^- used dechlorination / e^- used donor): 5.392%
- Relative Efficiency ([4]; relative to Lactate Control = 100%): 100%

Reference: patent publication US10179355B2, “Bioremediation enhancing agents and methods of use” (JRW BIOREMEDIATION, LLC, priority 2007, dated 2019)
